Key:
Type in all cases: functional
[1] = system: Mycobacterium tuberculosis; experiment: Antitubercular activity against rifampin-resistant Mycobacterium tuberculosis H37Rv by microplate alamar blue assay
[2] = system: Mycobacterium tuberculosis; experiment: Antitubercular activity against isoniazid-resistant Mycobacterium tuberculosis H37Rv by microplate alamar blue assay
[3] = system: Mycobacterium tuberculosis; experiment: Antitubercular activity against Mycobacterium tuberculosis H37Rv harboring LuxABCDE assessed as reduction in luminescence supplemented with fresh medium containing compound on day 2 and 5 by luminescence assay; conditions: 120 h, time 5 day
[4] = system: Mycobacterium tuberculosis; experiment: Synergistic antitubercular activity against Mycobacterium tuberculosis bedaquiline-resistant mutant 7 assessed as bedaquiline MIC=>90 at 0.4 ug/ml by microplate alamar blue assay (reference value: 0.9 uM); conditions: dose 0.4 µg/ml
[5] = system: Mycobacterium tuberculosis; experiment: Synergistic antitubercular activity against Mycobacterium tuberculosis bedaquiline-resistant mutant H15 assessed as bedaquiline MIC=>90 at 0.4 ug/ml by microplate alamar blue assay (Rvb >2 uM); conditions: dose 0.4 µg/ml
[6] = system: Mycobacterium tuberculosis; experiment: Synergistic antitubercular activity against Mycobacterium tuberculosis bedaquiline-resistant mutant H15 assessed as bedaquiline growth inhibition at 0.4 ug/ml by microplate alamar blue assay (reference value: 75%); conditions: dose 0.4 µg/ml
[7] = system: Mycobacterium tuberculosis; experiment: Synergistic antitubercular activity against Mycobacterium tuberculosis rifampin-resistant mutant assessed as rifampin MIC=>90 at 0.4 ug/ml by microplate alamar blue assay (Rvb >1 uM); conditions: dose 0.4 µg/ml
[8] = system: Mycobacterium tuberculosis; experiment: Synergistic antitubercular activity against Mycobacterium tuberculosis rifampin-resistant mutant assessed as rifampin growth inhibition at 0.4 ug/ml by microplate alamar blue assay (reference value: 46%); conditions: dose 0.4 µg/ml
[9] = system: Mycobacterium tuberculosis; experiment: Synergistic antitubercular activity against Mycobacterium tuberculosis isoniazid-resistant mutant assessed as isoniazid MIC=>90 at 0.4 ug/ml by microplate alamar blue assay (Rvb >8 uM); conditions: dose 0.4 µg/ml
[10] = system: Mycobacterium tuberculosis; experiment: Synergistic antitubercular activity against Mycobacterium tuberculosis isoniazid-resistant mutant assessed as isoniazid growth inhibition at 0.4 ug/ml by microplate alamar blue assay (reference value: 0%); conditions: dose 0.4 µg/ml
[11] = system: Mycobacterium tuberculosis; experiment: Synergistic antitubercular activity against Mycobacterium tuberculosis bedaquiline-resistant mutant 7 assessed as bedaquiline MIC=>90 at 0.8 ug/ml by microplate alamar blue assay (Rvb >2 uM); conditions: dose 0.8 µg/ml
[12] = system: Mycobacterium tuberculosis; experiment: Synergistic antitubercular activity against Mycobacterium tuberculosis bedaquiline-resistant mutant H15 assessed as bedaquiline MIC=>90 at 0.8 ug/ml by microplate alamar blue assay (Rvb >2 uM); conditions: dose 0.8 µg/ml
[13] = system: Mycobacterium tuberculosis; experiment: Synergistic antitubercular activity against Mycobacterium tuberculosis bedaquiline-resistant mutant H15 assessed as bedaquiline growth inhibition at 0.8 ug/ml by microplate alamar blue assay (reference value: 75%); conditions: dose 0.8 µg/ml
[14] = system: Mycobacterium tuberculosis; experiment: Synergistic antitubercular activity against Mycobacterium tuberculosis rifampin-resistant mutant assessed as rifampin MIC=>90 at 0.8 ug/ml by microplate alamar blue assay (Rvb >1 uM); conditions: dose 0.8 µg/ml
[15] = system: Mycobacterium tuberculosis; experiment: Synergistic antitubercular activity against Mycobacterium tuberculosis rifampin-resistant mutant assessed as rifampin growth inhibition at 0.8 ug/ml by microplate alamar blue assay (reference value: 46%); conditions: dose 0.8 µg/ml
[16] = system: Mycobacterium tuberculosis; experiment: Synergistic antitubercular activity against Mycobacterium tuberculosis isoniazid-resistant mutant assessed as isoniazid MIC=>90 at 0.8 ug/ml by microplate alamar blue assay (Rvb >8 uM); conditions: dose 0.8 µg/ml
[17] = system: Mycobacterium tuberculosis; experiment: Synergistic antitubercular activity against Mycobacterium tuberculosis isoniazid-resistant mutant assessed as isoniazid growth inhibition at 0.8 ug/ml by microplate alamar blue assay (reference value: 0%); conditions: dose 0.8 µg/ml

SMILES: NNC(=O)c1ccncc1 [ISONIAZID]
- MIC90 [1]: 0.32 µM
- MIC90 [2]: > 8 µM

SMILES: COc1nc2ccc(Br)cc2cc1[C@@H](c1ccccc1)[C@@](O)(CCN(C)C)c1cccc2ccccc12 [BEDAQUILINE]
- EC90 [3]: 360 nM

SMILES: CC(C)N(C(=O)CCNCCCC1CCCC1)C(C)C
- MIC90 [1]: 1.78 µg/mL
- MIC90 [2]: 1.87 µg/mL
- EC90 [3]: 9.67 µg/mL
- MIC [4]: 0.91 µM
- MIC [5]: >2 µM
- growth inhibition (GI) [6]: 72%
- MIC [7]: >1 µM
- growth inhibition (GI) [8]: 47%
- MIC [9]: >8 µM
- growth inhibition (GI) [10]: 0%

SMILES: CC(=O)NC[C@H]1CN(c2ccc(N3CCOCC3)c(F)c2)C(=O)O1 [LINEZOLID]
- MIC90 [1]: 1.14 µM
- MIC90 [2]: 0.94 µM

SMILES: CO[C@H]1/C=C/O[C@@]2(C)Oc3c(C)c(O)c4c(O)c(c(/C=N/N5CCN(C)CC5)c(O)c4c3C2=O)NC(=O)/C(C)=C\C=C\[C@H](C)[C@H](O)[C@@H](C)[C@@H](O)[C@@H](C)[C@H](OC(C)=O)[C@@H]1C [RIFAMPIN]
- MIC90 [1]: > 1 µM
- MIC90 [2]: 0.03 µM

SMILES: CC(C)N(C(=O)CCNCCC(c1ccccc1)c1ccccc1)C(C)C
- MIC90 [1]: 3.32 µg/mL
- MIC90 [2]: 3.01 µg/mL
- EC90 [3]: 9.93 µg/mL
- MIC [11]: 0.53 µM
- MIC [12]: >2 µM
- growth inhibition (GI) [13]: 76%
- MIC [14]: >1 µM
- growth inhibition (GI) [15]: 60%
- MIC [16]: >8 µM
- growth inhibition (GI) [17]: 17%

Reference: ChEMBL document CHEMBL6182867, “Discovery of ultra short β-peptoids with selective activity against drug-resistant Mycobacterium tuberculosis” (Eur J Med Chem, 2025)
